In patent publication EP4461287A1, “SKIN CARE COSMETIC COMPOSITION” (Creaciones Aromáticas Industriales, S.A., priority 2023, dated 2024):

Key:
[1] = system: women with facial wrinkles; assay: Clinical anti-wrinkle study, preorbital area, 3D skin topography / confocal microscopy of silicone impressions; assay type: in vivo; details: O/W emulsion twice a day; for Wrinkles reduction (%) 4 wrinkles: at 4 weeks
Description: The clinical study was conducted on 40 women with facial wrinkles between 50 and 60 years of age. All volunteers were healthy and without any systemic or skin disease.
Wrinkles were measured using a topographic skin measurement device, a Bio 3D Structure Light Scanner technology, which performs a 3D reconstruction of the image in silicone (ANTERA 3D® and software (Miravex, Ireland).
The patients were divided into two groups, which applied the assigned O/W emulsions twice a day for two months. One group (1) applied a free Acetylhexapeptide-8 emulsion on one side of the preorbital area and an emulsion with Acetylhexapeptide-8 encapsulated in PCL and chitosan on the other side. The second group applied an O/W emulsion with free HA on one area of a preorbital area and another of the cosmetic composition of the present invention (Acetylhexapeptide-8, HA, PCL and chitosan) on the contralateral side. All participants were asked not to use any cosmetics containing ingredients that could interfere with the wrinkle status of the skin during the study period, nor were they subjected to exposure to direct sunlight.
Before the first application, at 4 and 8 weeks of use, silicone impressions were taken and processed by confocal laser scanning microscopy to evaluate the progress of wrinkles. The maximum depth values within the analysis area were taken as representative values of wrinkles, and the percentage reduction of these values before and after application were calculated as the percentage improvement of skin wrinkles.
In this study, measurements of the main roughness parameters such as mean roughness volume and area affected by roughness were obtained. The average roughness volume is the average (three-dimensional) dimension of the depression of the cutaneous microrelief measured in mm^3. The area affected by roughness is the roughness portion of the measured skin area (two-dimensional, measured in mm^2). The improvement was calculated as the percentage change between the images taken before the treatments and two months […].
Reflection mode confocal microscopy and three-dimensional analysis were used to evaluate the different parameters.
For this purpose, the 40 female volunteers were divided into two groups, and each group applied twice daily for 2 months two assigned emulsions, one to each eye in the same preorbital area. Before treatment, at 4 and 8 weeks, the decrease in wrinkles was quantified by 3D images analyzed by confocal microscopy.

[2] = Cutaneous penetration by Franz cell diffusion, HPLC quantification in the receptor solution; assay type: in vitro ADME; details: 20 h, pig skin, 32°C, receptor PBS pH 7.4, 25 µl applied
Description: Cutaneous penetration of free acetylhexapeptide-8 and encapsulated acetylhexapeptide-8 (nanocapsule of the present invention) was determined by means Franz cells diffusion. The pig skin samples were used to carry out the experiment, cut into circles 2.5 cm in diameter. The skin was assembled on the receptor compartment of a Franz diffusion cell system with the stratum corneum facing up towards the donor compartment. As a solution for the receptor, 18 ml of phosphate buffered saline (PBS) pH 7.4 stirred by a magnetic rod at 700 rpm were utilized. A 25 µl aliquot of each of the assay formulations was applied on the pig skin. The Franz diffusion cells were kept at 32°C, and after 20 h of incubation, the receptor solution was analyzed by HPLC (I=220 nm) to quantify the amount of acetylhexapeptide-8 was penetrated the skin. Triplicates of the assay were done.
HPLC analysis was performed utilizing a Waters 996 instrument with diode array detector equipped with Waters 2695 separations module and Millenium software; a C18 4.6x150 mm 5 µm reversed phase column by Waters was used. […]
The quantification of acetylhexapeptide-8 in the fluid (PBS) of the receptor chamber was evaluated through HPLC at 20 hours after application of 25 µL of the two solutions on the pig skin.

[3] = system: chromaffin cells; assay: Inhibition of Ca2+-induced catecholamine ([3H]noradrenaline) release in digitonin-permeabilized chromaffin cells; assay type: cell-based, bovine
Description: Chromaffin cell cultures were prepared from bovine adrenal glands by collagenase digestion and then separated from debris and erythrocytes by centrifugation. Briefly, the cells were maintained in monolayer cultures and used between the third and sixth day after plating. All the experiments were carried out at 37°C. Secreted neurotransmitter [^3H]noradrenaline was determined in cells permeabilized with digitonin. Neurotransmitter (catecholamines) release was stimulated by addition of 10 µM) Ca^2+.
To evaluate the enhancement of this activity of encapsulated Acetylhexapeptide-8, the inhibitory capacity on Ca^2+-induced catecholamine release was measured in digitonin-permeabilized chromaffin cells culture.
In particular, the activity of the free peptide free (acetylhexapeptide-8), the peptide encapsulated in Policaprolactone-Chitosan (Acetylhexapeptide-8@PCL-Chi) and the peptide encapsulated with sodium hyaluronate (HA) in PCL-Chi-HA (Acetylhexapeptide-8-HA@PCL-Chi-HA) (present invention) were compared.

[4] = Moisturizing efficacy: transepidermal water loss (TEWL) study by corneometry on forearms of volunteers; assay type: in vivo; details: forearm, women 45-50 years
Description: The transpidermal water loss (TEWL) study by corneometry was performed to compare the moisturizing activity of the composition of the present invention and its main components.
The assay was carried out on 20 women between the ages 45 and 50 years. None of the patients had suffered or had any medical history or relevant skin pathologies.
The volunteers were divided into four groups. Daily, for 7 days, the assigned sample was applied to one of the forearms of each group (group 1 sample with free sodium hyaluronate, group 2 sample with free Acetylhexapeptide-8, group 3 sample with free sodium hyaluronate and Acetylhexapeptide-8 and group 4 sample with complete encapsulation (Acetylhexapeptide-8, sodium hyaluronate, polycaprolactone and chitosan). The opposite forearm of each volunteer was the control.
Measurements were taken 2 hours and 7 days after the first application. Epidermal capacitance was evaluated using a CM 825 Corneometer, which allows quantification of surface humidity variations. Measurements were taken in an air-conditioned room (temperature 23°C, relative humidity 34.5%). […]
This trial compared the moisturizing capacity of free HA, free Acetylhexapeptide-8, free HA+Acetylhexapeptide-8 and the composition of the present invention (Acetylhexapeptide-8-HA@PCL-Chi-HA) by measuring the skin loss of water on the forearm of the volunteers analyzed. […]

- % Penetration [2]: 14%
Substance: Acetylhexapeptide-8 [Free Acetylhexapeptide-8]
- Wrinkles reduction (%) 4 wrinkles [1]: 20.5%
- Wrinkles reduction (%) 4 wrinkles ([1]; listed as free Acetylhexapeptide-8): 20%
- Wrinkles reduction (%) 8 wrinkles ([1]; at 8 weeks (end of treatment)): 30%
- Decrease area affected by roughness (%) ([1]; at 8 weeks): 31.2%
- Roughness volume decrease (%) ([1]; at 8 weeks): 35%
- decrease in total catecholamine exocytosis / inhibition of the release of neurotransmitters ([3]; Ca2+-induced release, versus control): 20%
- Cathecolamine release (%) ([3]; stimulated with 10 µM Ca2+, 37°C, control = 100): 80%
- Tewl After 2 hours ([4]; 2 hours after first application, control 16): 15.8 g/m^2h
- Tewl After 7 days ([4]; after 7 days of daily application, control 17): 16.5 g/m^2h
